Values after ≈ are worked out from the molar mass of the structure shown. Where a SMILES comes first, the peptide text is derived from it. Bridges are numbered along the chain shown (N, C = ends). [ ]: non-standard residue; d: D form. The star is where a group is joined. Quinaldoyl = O=C(c1ccc2ccccc2n1)*; X44 = O=C(c1cc(-c2ccccc2)no1)*; X64 = O=C(c1noc(-c2ccccc2)n1)*; X23 = O=C(c1cc2ccccc2[nH]1)*; X27 = O=C(c1sc2ccccc2c1Cl)*; X36 = O=C(c1ncc(Br)cc1Br)*; X29 = O=C(c1cc(Cl)ccn1)*; Dab = NCC[C@H](N)C(=O)O; Abu = CC[C@H](N)C(=O)O; Dap = NC[C@H](N)C(=O)O
What was measured:
Format in all cases: cell-based
[1] = tested on: Klebsiella pneumoniae FADDI-KP032; details: FADDI-KP032
Procedure: (§1) MICs of the lipopeptides (trifluoroacetic acid salt, TFA) were determined by broth microdilution in cation-adjusted Mueller-Hinton broth (CAMHB) (Oxoid Australia, Thebarton, SA, Australia) according to the Clinical and Laboratory Standards Institute protocol (Clinical and Laboratory Standards Institute, Performance standards for antimicrobial susceptibility testing; twentyforth informational supplement M100-S24. Wayne, Pa., 2014). Polymyxin B sulphate was employed as the control. Antimicrobial activity of Compounds 1-104 against polymyxin-susceptible Gram-negative bacteria was examined. The following isolates were examined: Pseudomonas aeruginosa ATCC 27853, Pseudomonas aeruginosa FADDI-PA022*, Pseudomonas aeruginosa FADDI-PA01*, Pseudomonas aeruginosa FADDI-PA038*, Acinetobacter baumannii FADDI-AB034*, Acinetobacter baumannii ATCC 17978, Acinetobacter baumannii FADDI-AB030*, Klebsiella pneumoniae FADDI-KP032, Klebsiella pneumoniae FADDI-KP022*, Klebsiella pneumoniae Kp BM1*, Enterobacter cloacae FADDI-EC006, Enterobacter cloacae FADDI-EC001, and Enterobacter cloacae FADDI-EC003 (* Multi drug-resistant clinical isolates, § New Delhi Metallo-beta-lactamase-1 (NDM-1) producing). The results are illustrated in Tables 4 and 5.

[2] = tested on: Acinetobacter baumannii ATCC 17978; details: ATCC 17978
Procedure: as §1

[3] = tested on: Pseudomonas aeruginosa FADDI-PA038; details: FADDI-PA038
Procedure: as §1

[4] = tested on: Enterobacter cloacae FADDI-EC006; details: FADDI-EC006
Procedure: as §1

[5] = tested on: Enterobacter cloacae FADDI-EC003; details: FADDI-EC003
Procedure: as §1

[6] = tested on: Enterobacter cloacae FADDI-EC001; details: FADDI-EC001
Procedure: as §1

[7] = tested on: Pseudomonas aeruginosa FADDI-PA022; details: FADDI-PA022
Procedure: as §1

[8] = tested on: Pseudomonas aeruginosa FADDI-PA01; details: FADDI-
Procedure: as §1

[9] = tested on: Acinetobacter baumannii FADDI-AB034; details: FADDI-AB034
Procedure: as §1

[10] = tested on: Pseudomonas aeruginosa ATCC 27853; details: ATCC 27853
Procedure: as §1

[11] = tested on: Klebsiella pneumoniae Kp BM1; details: Kp BM1
Procedure: as §1

[12] = tested on: Klebsiella pneumoniae FADDI-KP022; details: FADDI-KP022
Procedure: as §1

[13] = tested on: Acinetobacter baumannii FADDI-AB030; test: microbe, parasite or virus in culture; details: FADDI-AB030
Procedure: as §1, with “Antimicrobial activity of Compounds 1-104 against polymyxin-susceptible Gram-negative bacteria was examined.” left out, “5. […]” for “5.”

## CC[C@@H]1NC(=O)[C@@H](CC(C)C)NC(=O)[C@H](CCN)NC(=O)[C@@H](NC(=O)[C@H](CN)NC(=O)[C@@H](NC(=O)[C@H](CCN)NC(=O)c2cc(Cl)ccn2)[C@@H](C)O)CCNC(=O)[C@H]([C@@H](C)O)NC(=O)[C@H](CCN)NC(=O)[C@H](CCN)NC1=O [Compound 26] (X29-[Dab]T[Dap][Dab][Dab][dL][Abu][Dab][Dab]T; lactam 4-C)
[1]
  Minimum inhibitory concentration: 0.25 µg/mL (≈ 0.222 µM)
[2]
  Minimum inhibitory concentration: 0.5 µg/mL (≈ 0.444 µM)
[3]
  Minimum inhibitory concentration: 0.5 µg/mL (≈ 0.444 µM)
[4]
  Minimum inhibitory concentration: 2 µg/mL (≈ 1.78 µM)
[5]
  Minimum inhibitory concentration: <0.125 µg/mL
[6]
  Minimum inhibitory concentration: 0.25 µg/mL (≈ 0.222 µM)
[7]
  Minimum inhibitory concentration: 0.25 µg/mL (≈ 0.222 µM)
[8]
  Minimum inhibitory concentration: 0.25 µg/mL (≈ 0.222 µM)
[9]
  Minimum inhibitory concentration: 0.5 µg/mL (≈ 0.444 µM)
[10]
  Minimum inhibitory concentration: 0.25 µg/mL (≈ 0.222 µM)
[11]
  Minimum inhibitory concentration: 0.25 µg/mL (≈ 0.222 µM)
[12]
  Minimum inhibitory concentration: <0.125 µg/mL
[13]
  Minimum inhibitory concentration: 0.5 µg/mL (≈ 0.444 µM)

## CC[C@@H]1NC(=O)[C@@H](CC(C)C)NC(=O)[C@H](CCN)NC(=O)[C@@H](NC(=O)[C@H](CN)NC(=O)[C@@H](NC(=O)[C@H](CCN)NC(=O)c2cc(-c3ccccc3)no2)[C@@H](C)O)CCNC(=O)[C@H]([C@@H](C)O)NC(=O)[C@H](CCN)NC(=O)[C@H](CCN)NC1=O [Compound 87] (X44-[Dab]T[Dap][Dab][Dab][dL][Abu][Dab][Dab]T; lactam 4-C)
[1]
  Minimum inhibitory concentration: 0.25 µg/mL (≈ 0.216 µM)
[2]
  Minimum inhibitory concentration: 0.5 µg/mL (≈ 0.432 µM)
[3]
  Minimum inhibitory concentration: 1 µg/mL (≈ 0.863 µM)
[4]
  Minimum inhibitory concentration: 0.25 µg/mL (≈ 0.216 µM)
[5]
  Minimum inhibitory concentration: <0.125 µg/mL
[6]
  Minimum inhibitory concentration: <0.125 µg/mL
[7]
  Minimum inhibitory concentration: 0.5 µg/mL (≈ 0.432 µM)
[8]
  Minimum inhibitory concentration: 0.5 µg/mL (≈ 0.432 µM)
[9]
  Minimum inhibitory concentration: 0.5 µg/mL (≈ 0.432 µM)
[10]
  Minimum inhibitory concentration: 1 µg/mL (≈ 0.863 µM)
[11]
  Minimum inhibitory concentration: 0.5 µg/mL (≈ 0.432 µM)
[12]
  Minimum inhibitory concentration: <0.125 µg/mL
[13]
  Minimum inhibitory concentration: 0.5 µg/mL (≈ 0.432 µM)

## CC[C@@H]1NC(=O)[C@@H](CC(C)C)NC(=O)[C@H](CCN)NC(=O)[C@@H](NC(=O)[C@H](CN)NC(=O)[C@@H](NC(=O)[C@H](CCN)NC(=O)c2noc(-c3ccccc3)n2)[C@@H](C)O)CCNC(=O)[C@H]([C@@H](C)O)NC(=O)[C@H](CCN)NC(=O)[C@H](CCN)NC1=O [Compound 81] (X64-[Dab]T[Dap][Dab][Dab][dL][Abu][Dab][Dab]T; lactam 4-C)
[1]
  Minimum inhibitory concentration: 0.5 µg/mL (≈ 0.431 µM)
[2]
  Minimum inhibitory concentration: 2 µg/mL (≈ 1.73 µM)
[3]
  Minimum inhibitory concentration: 1 µg/mL (≈ 0.863 µM)
[4]
  Minimum inhibitory concentration: 0.25 µg/mL (≈ 0.216 µM)
[5]
  Minimum inhibitory concentration: <0.125 µg/mL
[6]
  Minimum inhibitory concentration: <0.125 µg/mL
[7]
  Minimum inhibitory concentration: 0.5 µg/mL (≈ 0.431 µM)
[8]
  Minimum inhibitory concentration: 0.5 µg/mL (≈ 0.431 µM)
[9]
  Minimum inhibitory concentration: 4 µg/mL (≈ 3.45 µM)
[10]
  Minimum inhibitory concentration: 1 µg/mL (≈ 0.863 µM)
[11]
  Minimum inhibitory concentration: 0.5 µg/mL (≈ 0.431 µM)
[12]
  Minimum inhibitory concentration: <0.125 µg/mL
[13]
  Minimum inhibitory concentration: 2 µg/mL (≈ 1.73 µM)

## CC[C@@H]1NC(=O)[C@@H](CC(C)C)NC(=O)[C@H](CCN)NC(=O)[C@@H](NC(=O)[C@H](CN)NC(=O)[C@@H](NC(=O)[C@H](CCN)NC(=O)c2cc3ccccc3[nH]2)[C@@H](C)O)CCNC(=O)[C@H]([C@@H](C)O)NC(=O)[C@H](CCN)NC(=O)[C@H](CCN)NC1=O [Compound 56] (X23-[Dab]T[Dap][Dab][Dab][dL][Abu][Dab][Dab]T; lactam 4-C)
[1]
  Minimum inhibitory concentration: <0.125 µg/mL
[2]
  Minimum inhibitory concentration: 0.25 µg/mL (≈ 0.221 µM)
[3]
  Minimum inhibitory concentration: 0.5 µg/mL (≈ 0.442 µM)
[4]
  Minimum inhibitory concentration: 0.5 µg/mL (≈ 0.442 µM)
[5]
  Minimum inhibitory concentration: 0.5 µg/mL (≈ 0.442 µM)
[6]
  Minimum inhibitory concentration: <0.125 µg/mL
[7]
  Minimum inhibitory concentration: 0.25 µg/mL (≈ 0.221 µM)
[8]
  Minimum inhibitory concentration: <0.125 µg/mL
[9]
  Minimum inhibitory concentration: <0.125 µg/mL
[10]
  Minimum inhibitory concentration: 0.25 µg/mL (≈ 0.221 µM)
[11]
  Minimum inhibitory concentration: 0.25 µg/mL (≈ 0.221 µM)
[12]
  Minimum inhibitory concentration: <0.125 µg/mL
[13]
  Minimum inhibitory concentration: 0.25 µg/mL (≈ 0.221 µM)

## CC[C@@H]1NC(=O)[C@@H](CC(C)C)NC(=O)[C@H](CCN)NC(=O)[C@@H](NC(=O)[C@H](CN)NC(=O)[C@@H](NC(=O)[C@H](CCN)NC(=O)c2ccc3ccccc3n2)[C@@H](C)O)CCNC(=O)[C@H]([C@@H](C)O)NC(=O)[C@H](CCN)NC(=O)[C@H](CCN)NC1=O [Compound 55] (Quinaldoyl-[Dab]T[Dap][Dab][Dab][dL][Abu][Dab][Dab]T; lactam 4-C)
[1]
  Minimum inhibitory concentration: <0.125 µg/mL
[2]
  Minimum inhibitory concentration: 1 µg/mL (≈ 0.875 µM)
[3]
  Minimum inhibitory concentration: 0.25 µg/mL (≈ 0.219 µM)
[4]
  Minimum inhibitory concentration: <0.125 µg/mL
[5]
  Minimum inhibitory concentration: <0.125 µg/mL
[6]
  Minimum inhibitory concentration: <0.125 µg/mL
[7]
  Minimum inhibitory concentration: <0.125 µg/mL
[8]
  Minimum inhibitory concentration: 0.25 µg/mL (≈ 0.219 µM)
[9]
  Minimum inhibitory concentration: 0.25 µg/mL (≈ 0.219 µM)
[10]
  Minimum inhibitory concentration: 0.25 µg/mL (≈ 0.219 µM)
[11]
  Minimum inhibitory concentration: 0.5 µg/mL (≈ 0.438 µM)
[12]
  Minimum inhibitory concentration: <0.125 µg/mL
[13]
  Minimum inhibitory concentration: 0.25 µg/mL (≈ 0.219 µM)

## CC[C@@H]1NC(=O)[C@@H](CC(C)C)NC(=O)[C@H](CCN)NC(=O)[C@@H](NC(=O)[C@H](CN)NC(=O)[C@@H](NC(=O)[C@H](CCN)NC(=O)c2ncc(Br)cc2Br)[C@@H](C)O)CCNC(=O)[C@H]([C@@H](C)O)NC(=O)[C@H](CCN)NC(=O)[C@H](CCN)NC1=O [Compound 22] (X36-[Dab]T[Dap][Dab][Dab][dL][Abu][Dab][Dab]T; lactam 4-C)
[1]
  Minimum inhibitory concentration: <0.125 µg/mL
[2]
  Minimum inhibitory concentration: 0.5 µg/mL (≈ 0.4 µM)
[3]
  Minimum inhibitory concentration: 0.5 µg/mL (≈ 0.4 µM)
[4]
  Minimum inhibitory concentration: <0.125 µg/mL
[5]
  Minimum inhibitory concentration: <0.125 µg/mL
[6]
  Minimum inhibitory concentration: <0.125 µg/mL
[7]
  Minimum inhibitory concentration: 0.5 µg/mL (≈ 0.4 µM)
[8]
  Minimum inhibitory concentration: 0.25 µg/mL (≈ 0.2 µM)
[9]
  Minimum inhibitory concentration: 0.5 µg/mL (≈ 0.4 µM)
[10]
  Minimum inhibitory concentration: 0.5 µg/mL (≈ 0.4 µM)
[11]
  Minimum inhibitory concentration: <0.125 µg/mL
[12]
  Minimum inhibitory concentration: <0.125 µg/mL
[13]
  Minimum inhibitory concentration: 0.5 µg/mL (≈ 0.4 µM)

## CC(C)C[C@H]1NC(=O)[C@H](CCN)NC(=O)[C@@H](NC(=O)[C@H](CN)NC(=O)[C@@H](NC(=O)[C@H](CCN)NC(=O)c2sc3ccccc3c2Cl)[C@@H](C)O)CCNC(=O)[C@H]([C@@H](C)O)NC(=O)[C@H](CCN)NC(=O)[C@H](CCN)NC(=O)[C@H](C)NC1=O [Compound 69] (X27-[Dab]T[Dap][Dab][Dab][dL]A[Dab][Dab]T; lactam 4-C)
[1]
  Minimum inhibitory concentration: 0.25 µg/mL (≈ 0.214 µM)
[2]
  Minimum inhibitory concentration: 0.25 µg/mL (≈ 0.214 µM)
[3]
  Minimum inhibitory concentration: 2 µg/mL (≈ 1.71 µM)
[4]
  Minimum inhibitory concentration: 0.25 µg/mL (≈ 0.214 µM)
[5]
  Minimum inhibitory concentration: 0.25 µg/mL (≈ 0.214 µM)
[6]
  Minimum inhibitory concentration: 1 µg/mL (≈ 0.856 µM)
[7]
  Minimum inhibitory concentration: 0.5 µg/mL (≈ 0.428 µM)
[8]
  Minimum inhibitory concentration: 0.5 µg/mL (≈ 0.428 µM)
[9]
  Minimum inhibitory concentration: 0.25 µg/mL (≈ 0.214 µM)
[10]
  Minimum inhibitory concentration: 0.5 µg/mL (≈ 0.428 µM)
[11]
  Minimum inhibitory concentration: 0.25 µg/mL (≈ 0.214 µM)
[12]
  Minimum inhibitory concentration: <0.125 µg/mL
[13]
  Minimum inhibitory concentration: 0.25 µg/mL (≈ 0.214 µM)
